Data from patent US20220315895A1, “METHODS OF MAKING OLIGOPOTENT AND UNIPOTENT PRECURSORS” (Transfusion Health, LLC, priority 2019, published 2022).

Assays:
[1] = system: CD34+ cells from mobilized peripheral blood; experiment: Long-term expansion of HSCs, mobilized peripheral blood (Example 36); format: cell-based, human; settings: Compound 1.010 8 μM, up to 21 days, from day 1
Procedure: CD34+ cells from mobilized peripheral blood were purchased from STEMCELL Technologies. The blood from volunteer donors was mobilized using G-CSF. Volunteers were administered a maximum of 10 μg/kg/day of granulocyte colony-stimulating factor (G-CSF) for 3-5 days prior to collection. Primary human CD34+ cells were isolated from mobilized peripheral blood leukapheresis samples using positive immunomagnetic separation techniques.
Cryopreserved CD34+ cell samples from each source were thawed and gradually brought to room temperature. Samples were washed then placed in overnight culture in StemSpan with 100 ng/ml each of FLT3L, TPO, SCF, and TL-6.
Cultures were incubated at 3% oxygen (controlled by nitrogen) and 5% CO2.
Twenty-four hours later (day 1), cells were counted and immunophenotyped (flow cytometry on an Invitrogen Attune N×T cytometer). The media components and concentrations used for the compounds tested are described in Table 7. Culture conditions also included an antibiotic solution that includes penicillin, streptomycin, and amphotericin B to avoid contamination. Approximately 1000 cells were added to each of the cord blood and mobilized peripheral blood flasks (5 ml total volume) or wells of a 96-well plate (200 μl total volume). Approximately 2000 cells were added to each of the non-mobilized peripheral blood flasks (5 ml total volume) or wells of a 96-well plate (200 μl total volume). Exact cell numbers dispensed per condition were quantified for later calculations of fold change from day 1.
Wells were analyzed at days 7 and 10, flasks were analyzed at 14 and 21 days of incubation. Cell numbers and phenotypes were quantified with flow cytometry. At day 14, fresh conditions for flasks were prepared as on day 1, and cells were split 1:20 into the new flasks. An additional seven days later (day 21 of culture), cell numbers and phenotypes were again quantified with flow cytometry. Cell numbers calculated at day 21 account for the passaging of the cells.
Conditions in 96-well plates were prepared in quadruplicate; conditions in flasks were prepared in duplicate. On the above-indicated number of days in culture, cells from wells or flasks were collected and phenotypes were analyzed (flow cytometry on an Invitrogen Attune N×T cytometer).

[2] = system: expanded cord blood CD34+ cells, granulocyte (CD15+/CD14−) and monocyte (CD14+/CD15−) lineage; experiment: Myeloid (granulocyte and monocyte) Differentiation Culture after Expansion Culture (Example 38); format: cell-based, human
Procedure: At days 21 and 63, CD34+ enriched cells were placed into Differentiation Cultures, described below.
Differentiation cultures were initiated using Erythroid, Myeloid (granulocyte and monocyte), and Megakaryocyte HemaTox kits from STEMCELL technologies following the manufacturer's instructions. In brief, lineage media was prepared by adding cytokine cocktails for erythrocyte (SCF, IL-3, and EPO), myeloid (i.e. mixed granulocyte/monocyte, SCF, TPO, G-CSF, and GM-CSF) or megakaryocyte (SCF, IL-6, IL-9 and TPO) lineage differentiation to their respective kits' media, then adding approximately 30-100 CD34+ cells for erythroid or myeloid cultures, or 300-1000 CD34+ cells for megakaryoid cultures. Exact cell numbers plated were quantified for later analysis. All incubations for Differentiation Culture took place at 3% oxygen (controlled by nitrogen) and 5% CO2.
Following seven days of erythroid or myeloid cultures, or ten days for megakaryoid cultures, differentiated cell output was quantified using flow cytometry. Erythroid output was quantified using anti-CD71 and anti-CD235a antibodies, and megakaryocyte lineage output was quantified using anti-CD41 and anti-CD42b antibodies. Granulocyte and monocyte lineage outputs were assessed in tandem, using CD14 and CD15 antibodies, with granulocyte lineage cells being CD15+/CD14−, and monocyte lineage cells being CD14+/CD15−.
A number of quantities were calculated to assess the effect of expansion of CD34+ cells in the +Formula I Condition on the output of lineage differentiated cells. “Per-Assayed-CD34+ Cell Output” describes the output of differentiated cells per CD34+ cell placed into Differentiation Culture, and is calculated by dividing the total number of lineage-positive cells by the input CD34+ cell number quantified at Differentiation Culture initiation at day 1, 21, or 63. “Per-expanded-day-1-CD34+ cell output” describes the number of differentiated cells of a given lineage that may be produced from a single CD34+ cell following both Expansion Cell Culture (if expanded) followed by Differentiation Culture, and is calculated by multiplying Per-Assayed-CD34+ Cell Output by the fold expansion of CD34+ cells from day 1 to the day of analysis, either day 21 or day 63. […] We calculated therapeutic units for granulocyte precursors, using 50 billion (5×10^10) cells per dose as a conservative benchmark (Valentini, C. G., Farina, F., Pagano, L., and Teofili, L. (2017). Granulocyte Transfusions: A Critical Reappraisal. Biol. Blood Marrow Transplant. 23, 2034-2041). […]

[3] = +Formula I expansion to day 21, then 7 days differentiation
[4] = +Formula I expansion to day 63, then 7 days differentiation

SMILES: CC(C)(C)C(=O)Nc1ccc2c(c1)C(O)c1ccccc1-2 (stereo not drawn) [Compound 1.010]
- fold expansion of CD34+ cells [1]: greater than 20 fold
- fold expansion of CD34+/CD133+ cells [1]: greater than 40 fold
- fold expansion of CD34+/CD133+/CD90+ cells [1]: greater than 60 fold
- fold expansion of CD34+/CD133+/CD90+/CD38low/− cells [1]: greater than 60 fold
- fold expansion of CD34+/CD133+/CD90+/CD45RA− cells [1]: greater than 30 fold
- fold increase of per-expanded-day-1-CD34+ cell output, monocyte lineage, over uncultured cells [2, 3]: 800 fold
- fold increase of per-expanded-day-1-CD34+ cell output, total granulocyte lineage, over uncultured cells [2, 3]: 370 fold
- fold increase of per-expanded-day-1-CD34+ cell output, monocyte lineage, over uncultured cells [2, 4]: 108,000 fold
- fold increase of per-expanded-day-1-CD34+ cell output, total granulocyte lineage, over uncultured cells [2, 4]: 67,000 fold
